Reference: PubChem BioAssay (NCI)
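Test compounds were applied to cells in 96-well plates for 48 hours at 5 doses. TGI: total growth inhibition.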

Columns and labels:
Test in all cases: inhibition of tumour cell growth, NCI panel, 48 h
[1] = system: ACHN renal
[2] = system: SF-539 CNS
[3] = system: RPMI-8226 leukemia
[4] = system: NCI/ADR-RES ovarian
[5] = system: SNB-19 CNS
[6] = system: MDA-MB-231 breast
[7] = system: UACC-62 melanoma
[8] = system: HL-60(TB) leukemia
[9] = system: CAKI-1 renal
[10] = system: NCI-H522 lung
[11] = system: HCT-116 colon
[12] = system: SK-MEL-2 melanoma
[13] = system: SF-295 CNS
[14] = system: HCT-15 colon
[15] = system: 786-0 renal
[16] = system: KM12 colon
[17] = system: COLO 205 colon
[18] = system: MALME-3M melanoma
[19] = system: SR leukemia
[20] = system: SK-OV-3 ovarian
[21] = system: SNB-75 CNS
[22] = system: MDA-MB-435
[23] = system: MOLT-4 leukemia
[24] = system: BT-549 breast
[25] = system: SF-268 CNS
[26] = system: NCI-H23 lung
[27] = system: UACC-257 melanoma
[28] = system: EKVX NSCLC
[29] = system: SN12C renal
[30] = system: HOP-92 NSCLC
[31] = system: HCC-2998 colon
[32] = system: OVCAR-4 ovarian
[33] = system: PC-3 prostate
[34] = system: IGROV1 ovarian
[35] = system: RXF 393 renal
[36] = system: SK-MEL-5 melanoma
[37] = system: OVCAR-5 ovarian
[38] = system: CCRF-CEM leukemia
[39] = system: UO-31 renal
[40] = system: T-47D breast
[41] = system: M14 melanoma
[42] = system: OVCAR-3 ovarian
[43] = system: U251 CNS
[44] = system: HOP-62 NSCLC
[45] = system: MCF7 breast
[46] = system: OVCAR-8 ovarian
[47] = system: NCI-H226 lung
[48] = system: SK-MEL-28 melanoma
[49] = system: HT29 colon
[50] = system: A498 renal
[51] = system: HS 578T breast
[52] = system: A549 NSCLC
[53] = system: DU-145 prostate
[54] = system: NCI-H460 lung
[55] = system: TK-10 renal
[56] = system: K-562 leukemia
[57] = system: SW-620 colon
[58] = system: LOX IMVI melanoma
[59] = system: MDA-N

Compound: CC1(C)Oc2ccccc2OC1O (stereo unspecified)
- TGI [1]: > 100 µM
- TGI [2]: > 100 µM
- TGI [3]: > 100 µM
- TGI [4]: > 100 µM
- TGI [5]: > 100 µM
- TGI [6]: > 100 µM
- TGI [7]: > 100 µM
- TGI [8]: > 100 µM
- TGI [9]: > 100 µM
- TGI [10]: > 100 µM
- TGI [11]: > 100 µM
- TGI [12]: > 100 µM
- TGI [13]: > 100 µM
- TGI [14]: > 100 µM
- TGI [15]: > 100 µM
- TGI [16]: > 100 µM
- TGI [17]: > 100 µM
- TGI [18]: > 100 µM
- TGI [19]: > 100 µM
- TGI [20]: > 100 µM
- TGI [21]: > 100 µM
- TGI [22]: > 100 µM
- TGI [23]: > 100 µM
- TGI [24]: > 100 µM
- TGI [25]: > 100 µM
- TGI [26]: > 100 µM
- TGI [27]: > 100 µM
- TGI [28]: > 100 µM
- TGI [29]: > 100 µM
- TGI [30]: > 100 µM
- TGI [31]: > 100 µM
- TGI [32]: > 100 µM
- TGI [33]: > 100 µM
- TGI [34]: > 100 µM
- TGI [35]: > 100 µM
- TGI [36]: > 100 µM
- TGI [37]: > 100 µM
- TGI [38]: > 100 µM
- TGI [39]: > 100 µM
- TGI [40]: > 100 µM
- TGI [41]: > 100 µM
- TGI [42]: > 100 µM
- TGI [43]: > 100 µM
- TGI [44]: > 100 µM
- TGI [45]: > 100 µM
- TGI [46]: > 100 µM
- TGI [47]: > 100 µM
- TGI [48]: > 100 µM
- TGI [49]: > 100 µM
- TGI [50]: > 100 µM
- TGI [51]: > 100 µM
- TGI [52]: > 100 µM
- TGI [53]: > 100 µM
- TGI [54]: > 100 µM
- TGI [55]: > 100 µM
- TGI [56]: > 100 µM
- TGI [57]: > 100 µM
- TGI [58]: > 100 µM
- TGI [59]: > 100 µM

Compound: Cc1[nH]n(-c2ncc(C(=O)O)c(=O)[nH]2)c(=O)c1CCO
- TGI [1]: > 100 µM
- TGI [2]: > 100 µM
- TGI [3]: > 100 µM
- TGI [4]: > 100 µM
- TGI [5]: > 100 µM
- TGI [6]: > 100 µM
- TGI [7]: > 100 µM
- TGI [8]: > 100 µM
- TGI [9]: > 100 µM
- TGI [10]: > 100 µM
- TGI [11]: > 100 µM
- TGI [12]: > 100 µM
- TGI [13]: > 100 µM
- TGI [14]: > 100 µM
- TGI [15]: > 100 µM
- TGI [16]: > 100 µM
- TGI [17]: > 100 µM
- TGI [18]: > 100 µM
- TGI [19]: > 100 µM
- TGI [20]: > 100 µM
- TGI [21]: > 100 µM
- TGI [22]: > 100 µM
- TGI [23]: > 100 µM
- TGI [24]: > 100 µM
- TGI [25]: > 100 µM
- TGI [26]: > 100 µM
- TGI [27]: > 100 µM
- TGI [28]: > 100 µM
- TGI [29]: > 100 µM
- TGI [30]: > 100 µM
- TGI [31]: > 100 µM
- TGI [32]: > 100 µM
- TGI [33]: > 100 µM
- TGI [34]: > 100 µM
- TGI [35]: > 100 µM
- TGI [36]: > 100 µM
- TGI [37]: > 100 µM
- TGI [38]: > 100 µM
- TGI [39]: > 100 µM
- TGI [40]: > 100 µM
- TGI [41]: > 100 µM
- TGI [42]: > 100 µM
- TGI [43]: > 100 µM
- TGI [44]: > 100 µM
- TGI [45]: > 100 µM
- TGI [46]: > 100 µM
- TGI [47]: > 100 µM
- TGI [48]: > 100 µM
- TGI [49]: > 100 µM
- TGI [50]: > 100 µM
- TGI [51]: > 100 µM
- TGI [52]: > 100 µM
- TGI [53]: > 100 µM
- TGI [54]: > 100 µM
- TGI [55]: > 100 µM
- TGI [56]: > 100 µM
- TGI [57]: > 100 µM
- TGI [58]: > 100 µM
- TGI [59]: > 100 µM

Compound: Cc1cc(N(CCC#N)CCC#N)ccc1/C=N/NC(=O)c1ccccc1
- TGI [1]: > 100 µM
- TGI [2]: 47.5 µM
- TGI [3]: > 100 µM
- TGI [4]: 36.1 µM
- TGI [5]: > 100 µM
- TGI [6]: > 81.3 µM
- TGI [7]: > 100 µM
- TGI [8]: > 27.2 µM
- TGI [9]: > 100 µM
- TGI [10]: 39.3 µM
- TGI [11]: > 92.6 µM
- TGI [12]: > 100 µM
- TGI [13]: > 100 µM
- TGI [14]: > 100 µM
- TGI [15]: > 100 µM
- TGI [16]: > 100 µM
- TGI [17]: > 100 µM
- TGI [18]: > 100 µM
- TGI [19]: > 43.2 µM
- TGI [20]: > 100 µM
- TGI [21]: > 100 µM
- TGI [22]: > 38.9 µM
- TGI [23]: > 100 µM
- TGI [24]: > 100 µM
- TGI [25]: > 100 µM
- TGI [26]: > 100 µM
- TGI [27]: > 100 µM
- TGI [28]: > 100 µM
- TGI [29]: > 100 µM
- TGI [30]: > 100 µM
- TGI [31]: 55.1 µM
- TGI [32]: > 100 µM
- TGI [33]: > 100 µM
- TGI [34]: > 100 µM
- TGI [35]: > 100 µM
- TGI [36]: > 100 µM
- TGI [37]: > 100 µM
- TGI [38]: 98.1 µM
- TGI [39]: > 100 µM
- TGI [40]: > 100 µM
- TGI [41]: > 100 µM
- TGI [42]: > 84 µM
- TGI [43]: > 100 µM
- TGI [44]: > 100 µM
- TGI [45]: > 100 µM
- TGI [46]: > 82.8 µM
- TGI [47]: 84.1 µM
- TGI [48]: > 100 µM
- TGI [49]: 14.2 µM
- TGI [50]: 65.4 µM
- TGI [51]: > 56.5 µM
- TGI [52]: > 100 µM
- TGI [53]: > 86.2 µM
- TGI [54]: > 100 µM
- TGI [55]: > 100 µM
- TGI [56]: > 100 µM
- TGI [57]: > 100 µM
- TGI [58]: > 100 µM
- TGI [59]: 10.6 µM

Compound: CCC(C)NC(=S)N/N=C(\C)c1nc2ncccc2[nH]1 (stereo unspecified)
- TGI [1]: > 100 µM
- TGI [2]: 70.5 µM
- TGI [3]: > 100 µM
- TGI [4]: > 79.5 µM
- TGI [5]: 97.8 µM
- TGI [6]: > 100 µM
- TGI [7]: 79.7 µM
- TGI [8]: > 100 µM
- TGI [9]: 49.4 µM
- TGI [10]: > 100 µM
- TGI [11]: > 100 µM
- TGI [12]: > 100 µM
- TGI [13]: > 100 µM
- TGI [14]: > 100 µM
- TGI [15]: > 100 µM
- TGI [16]: > 100 µM
- TGI [17]: > 100 µM
- TGI [18]: > 100 µM
- TGI [19]: > 85.6 µM
- TGI [20]: > 69.9 µM
- TGI [21]: > 100 µM
- TGI [22]: > 100 µM
- TGI [23]: 46.6 µM
- TGI [24]: > 72.3 µM
- TGI [25]: > 88.4 µM
- TGI [26]: > 100 µM
- TGI [27]: > 100 µM
- TGI [28]: > 100 µM
- TGI [29]: > 100 µM
- TGI [30]: 44.6 µM
- TGI [31]: > 100 µM
- TGI [32]: > 73 µM
- TGI [33]: > 100 µM
- TGI [34]: > 100 µM
- TGI [35]: > 75.6 µM
- TGI [36]: 28.6 µM
- TGI [37]: > 84 µM
- TGI [38]: 38.7 µM
- TGI [39]: 11.6 µM
- TGI [40]: > 56.7 µM
- TGI [41]: 62.6 µM
- TGI [42]: > 100 µM
- TGI [43]: > 100 µM
- TGI [44]: > 100 µM
- TGI [45]: > 100 µM
- TGI [46]: > 100 µM
- TGI [47]: 38.7 µM
- TGI [48]: > 100 µM
- TGI [49]: > 100 µM
- TGI [50]: > 100 µM
- TGI [51]: > 100 µM
- TGI [52]: > 100 µM
- TGI [53]: > 100 µM
- TGI [54]: > 100 µM
- TGI [55]: > 100 µM
- TGI [56]: > 100 µM
- TGI [57]: > 100 µM
- TGI [58]: > 100 µM
- TGI [59]: > 100 µM
